{"source": "patent US20230149374A1", "about": "“METHODS AND COMPOSITIONS FOR TREATING ATHEROSCLEROSIS” (Sanford Burnham Prebys Medical Discovery Institute, priority 2021, published 2023)", "tested_on": "ApoE-deficient mice", "assay": "Serum analyses (cholesterol, triglycerides, bile acids, IL-6, haptoglobin, glucose, LPS)", "assay_type": "in vivo, mouse", "source_text": "Four cohorts of mice were used in these studies (FIGS. 8A and 9A). Cohorts 1 and 2 were devoted to the in vivo and ex vivo characterization of TNAP-associated plaque calcification. 6-week-old ApoE-deficient male mice were received at the animal facility and placed in conventional cages with 5 mice per cage. Mice were maintained on a 12-hrs light-dark cycle (7:00 am-7:00 pm) and were supplied with food and water ad libitum. From 10 weeks of age, they were fed ad libitum with a high fat diet (HFD, D12108C, Research Diets, New Brunswick, USA) containing 40% fat (kcal) and 1.25% cholesterol (weight). In cohort 1, 8 mice were sacrificed every 2 weeks between weeks 17 to 31, for histological and molecular analyses. Total body weight was measured weekly after starting the HFD. The sacrifice was done after anesthesia with isoflurane and intracardiac blood puncture by CO2 inhalation. Tissues were harvested as described below. The abdominal aorta was used for quantitative polymerase chain reaction (PCR) analyses. Mice from cohort 2 were used to analyze aorta calcification with ^18F—NaF μPET and μCT and to compare the in vivo data with the ex vivo results obtained in cohort 1. Animals were transferred from the animal facility to the Cermep imaging platform. Cohorts 3 and 4 were used to determine in vivo and ex vivo the impact of TNAP inhibition on the vasculature, liver, bones, and kidneys. According to the results obtained in cohorts 1 and 2, TNAP inhibitor SBI-425 (30 mg/kg/day, formulated as a food admixture in the HFD) was administered in a preventive manner from 10 weeks of age. Treatment was stopped at 25 weeks or 31 weeks of age. Plaque calcification was analyzed at 25 weeks, and possible side effects of TNAP inhibition were explored in mice aged 31 weeks. Mice in cohort 3 (2 groups of 13 mice) were used for ex vivo analysis, and mice in cohort 4 (2 groups of 12 mice) for in vivo imaging and ex vivo analyses.\nAfter overnight fasting, blood was collected from mice by cardiac puncture under anesthesia with isoflurane. Serum was obtained through centrifugation of the blood for 15 min at 1,500 g at 4° C. and stored at −80° C. before analysis. Concentration of total cholesterol and triglycerides were measured using a colorimetric (MAK043, Sigma) and a fluorimetric assay (MAK266, Sigma), respectively. Total bile acids were assayed with a commercial enzyme-based colorimetric kit (Abcam Ab239702). Serum IL-6 and haptoglobin levels were determined using the commercially available ELISA kits (Fischer Scientific 10110623 and Abcam 157714, respectively). The alkaline phosphatase activity assay was performed in a 96-well plate. Briefly, sera were mixed with a concentrated buffer at a ratio of 2.85:1 (vol/vol) in order to get final concentration of 0.56 M 2-amino-2-methyl-1-propanol buffer pH 10.5, 1 mM MgCl2 and 10 mM p-nitrophenylphosphate. Absorbance was acquired for 5 min at 405 nm (Tecan plate reader). The slope was calculated to determine TNAP activity levels in each sample and normalized to protein amounts measured with the BCA protein assay (Pierce).", "key": {"[1]": {"settings": "ApoE-deficient mice, 30 mg/kg/day, 25 weeks, fasting, vs control"}, "[2]": {"settings": "ApoE-deficient mice, 30 mg/kg/day, 25 weeks, vs control"}}}
{"compound": "COc1ccc(Cl)cc1S(=O)(=O)Nc1cncc(C(N)=O)c1", "note": "[SBI-425]", "values": [{"measurement": "serum levels of cholesterol", "setting": "[1]", "value": "significantly decreased"}, {"measurement": "serum levels of triglycerides (TGs)", "setting": "[1]", "value": "significantly decreased"}, {"measurement": "fasting glycemia", "setting": "[2]", "value": "did not modulate"}, {"measurement": "serum IL-6 levels", "setting": "[2]", "value": "reduced serum IL-6 levels, although not significantly"}, {"measurement": "serum bile acids levels", "setting": "[2]", "value": "did not change"}, {"measurement": "serum haptoglobin levels", "setting": "[2]", "value": "nor changed"}, {"measurement": "systemic inflammation", "setting": "mouse experiments, administration for several months", "value": "did not significantly change"}]}
